Results: PubChem BioAssay (NCI)
Several values for one entry are separate records, joined by “and”; a condition that tells them apart may be missing. Identical values can stand only once.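 1) Cells in 96-well plates. 2) Compound, 48 h, 5 concentrations. 3) Linear interpolation between surrounding doses. 4) Unreached endpoint = highest concentration. GI50 = concentration required for 50% inhibition of growth. TGI: concentration producing complete growth inhibition.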

Assays:
Assay in all cases: DTP human tumour cell line panel, 48 h
[1] = test system: ACHN renal
[2] = test system: HCT-15 colon
[3] = test system: IGROV1 ovarian
[4] = test system: NCI-H460 lung
[5] = test system: NCI-H522 lung
[6] = test system: OVCAR-3 ovarian
[7] = test system: SNB-19 CNS
[8] = test system: TK-10 renal
[9] = test system: U251 CNS

| SMILES | GI50 [1] | TGI [1] | GI50 [2] | TGI [2] | GI50 [3] | TGI [3] | GI50 [4] | TGI [4] | GI50 [5] | TGI [5] | GI50 [6] | TGI [6] | GI50 [7] | TGI [7] | GI50 [8] [µM] | TGI [8] | GI50 [9] | TGI [9] |
| --- | --- | --- | --- | --- | --- | --- | --- | --- | --- | --- | --- | --- | --- | --- | --- | --- | --- | --- |
| N.N.N.N.O=S([O-])[O-].[Co+3].[N-]=[N+]=[N-] | > 100 µM | > 100 µM | > 100 µM | > 100 µM | > 100 µM | > 100 µM | > 100 µM | > 100 µM | 42.3 µM | > 100 µM | > 100 µM | > 100 µM | > 100 µM | > 100 µM | > 100 | > 100 µM | > 100 µM | > 100 µM |
| O=C1N=C2N=C(c3ccc(Cl)cc3)N(c3ccc(Cl)cc3)N2Sc2ccccc21 | – | > 100 µM | – | > 100 µM | – | > 100 µM | – | > 100 µM | – | > 100 µM | – | > 100 µM | – | > 100 µM | – | > 100 µM | – | 87.2 µM |
| CCCCS(=O)(=O)c1cc(Nc2ccc(O)c3c2C(=O)c2ccccc2C3=O)ccc1C | > 100 µM | > 100 µM | 6.03 µM | > 100 µM | > 100 µM | > 100 µM | 0.431 µM | > 100 µM | > 100 µM | > 100 µM | – | – | 13.4 µM | > 100 µM | – | – | 35.8 µM | > 100 µM |
| CN(C)C(=S)/N=c1\ssc(=Nc2ccccc2)n1-c1ccccc1 | – | > 100 µM | – | > 100 µM | – | > 100 µM | – | – | – | 34 µM | – | 28.3 µM | – | – | – | 64.4 µM | – | 70.7 µM |
| COC(=O)c1c(C(=O)O)c(-c2ccccc2)c(-c2ccccc2)c(-c2ccccc2)c1-c1ccccc1 | > 100 µM | > 100 µM | > 100 µM | > 100 µM | > 100 µM | > 100 µM | > 100 µM | > 100 µM | 88.5 µM | > 100 µM | > 100 µM | > 100 µM | 23.1 µM | > 100 µM | > 100 | > 100 µM | > 100 µM | > 100 µM |
| Cc1c(-c2ccc(-c3ccccc3F)cc2)nc2ccc(F)cc2c1C(=O)O | 0.617 µM and 1.67 µM | 181 µM and 492 µM | 0.0764 µM and 0.5 µM | 114 µM and 153 µM | 0.726 µM and 0.654 µM | 64.8 µM and 227 µM | 0.349 µM and 0.5 µM | 80.9 µM and 174 µM | 9.89 µM and 67.3 µM | 93.8 µM and 434 µM | 10.1 µM and 23 µM | 27.5 µM and 91.6 µM and 139 µM | 0.864 µM and 1.73 µM | 164 µM and 513 µM | 62.7 | 208 µM and 471 µM | 0.0723 µM and 0.5 µM | 104 µM and 259 µM |
| CCOC(=O)c1sc(NC(=O)COc2ccc(/C=C3\CCc4cc(OC)ccc4C3=O)cc2)nc1C | 13.8 µM | 32.5 µM | 7.96 µM | 21.1 µM | 1.63 µM | 6.22 µM | 14.3 µM | 28.7 µM | 4.56 µM | 12.1 µM | 11 µM | 25.8 µM | 12.2 µM | 25.1 µM | 3.34 | 21.4 µM | 8.75 µM | 21.8 µM |
| COc1ccc(OCC(=O)O)c2c1CCC(C)C2=O (stereo unspecified) | – | > 100 µM | – | > 100 µM | – | > 100 µM | – | > 100 µM | – | > 100 µM | – | > 100 µM | – | > 100 µM | – | > 100 µM | – | > 100 µM |
| Cc1cccc(C=NC23CC4CC(CC(C4)C2)C3)c1 | – | > 100 µM | – | > 100 µM | – | > 100 µM | – | > 100 µM | – | > 100 µM | – | > 100 µM | – | > 100 µM | – | > 100 µM | – | > 100 µM |
| COc1ccccc1/C=C(\NC(=O)c1ccccc1)c1nc2ccccc2[nH]1 | – | > 100 µM | – | > 100 µM | – | > 100 µM | – | > 100 µM | – | > 100 µM | – | > 100 µM | – | > 100 µM | – | > 100 µM | – | > 100 µM |
| CC(NC1CCCC[C@@H]1O)c1ccccc1 (stereo partly specified) | – | > 100 µM | – | > 100 µM | – | > 100 µM | – | > 100 µM | – | – | – | > 100 µM | – | > 100 µM | – | > 100 µM | – | > 100 µM |
| O=C1c2ccccc2-c2c1c1ccccc1c(=O)n2CCNCCNCCNCCNCCn1c2c(c3ccccc3c1=O)C(=O)c1ccccc1-2 | 0.0446 µM | 0.58 µM | 0.568 µM | 2.56 µM | – | – | 0.0669 µM | 1.99 µM | 0.0202 µM | 0.474 µM | 1.45 µM | 4.96 µM | – | – | 0.177 | 1.35 µM | > 100 µM | > 100 µM |
| Cc1cc(O)c2c(c1)OC1(C)CCC3C(C)(C)CCCC34COC2C14 (stereo unspecified) | – | 25.8 µM | – | – | – | 38.7 µM | – | 30.6 µM | – | 34.6 µM | – | 26.8 µM | – | 32.7 µM | – | – | – | – |
| C=C(CN1CCc2ccccc2C1)c1ccc(CCCC(=O)Nc2ccccc2N)cc1 | 25.9 µM | > 100 µM | 28 µM | > 100 µM | – | – | > 100 µM | > 100 µM | 1.92 µM | 7.15 µM | 9.81 µM | 22.2 µM | 23.2 µM | > 100 µM | 41.3 | > 100 µM | 18.4 µM | 44.5 µM |
| CCNc1ccc2c(c1)C(=O)N(OS(C)(=O)=O)C2=O | – | > 100 µM | – | > 100 µM | – | – | – | > 100 µM | – | 34.8 µM | – | > 100 µM | – | > 100 µM | – | > 100 µM | – | > 100 µM |
